Tests used:
Cannabinoid receptor 1 [1] = target: Cannabinoid receptor 1 (Rattus norvegicus, UniProt P20272); experiment: Displacement of [3H]SR141716A from rat brain CB1 receptor
Cannabinoid receptor 1 [2] = target: Cannabinoid receptor 1 (Homo sapiens, UniProt P21554); experiment: Antagonist activity at human CB1 receptor transfected in CHO-K1cells by GTPgamma[35S] binding assay; assay type: functional, cell-based, CHO-K1
Homo sapiens = organism: Homo sapiens; experiment: Selectivity index, ratio of Ki for human CB2 receptor to Ki for human CB1 receptor
[3] = Intrinsic clearance in human liver microsomes; assay type: ADME, Microsome
Rattus norvegicus [4] = experiment: Clearance in rat at 2 mg/kg, iv; assay type: ADME, organism-based; parameters: dose 2 mg/kg, route intravenous; settings: in vivo
Mus musculus [5] = experiment: Effect on hypothermic activity in CP-55940-induced ICR mouse assessed as reduction in body temperature at 10 mg/kg, ip measured after 65 mins of CP-55940 challenge by tetrad assay; assay type: functional; parameters: scale not given: the % may be the effect or the level left; settings: route intraperitoneal
Cytochrome P450 2C19 = Cytochrome P450 2C19 (Homo sapiens, UniProt P33261); experiment: Inhibition of CYP2C19; assay type: ADME
Chain of Cytochrome P450 2C19 (P33261 whole entry): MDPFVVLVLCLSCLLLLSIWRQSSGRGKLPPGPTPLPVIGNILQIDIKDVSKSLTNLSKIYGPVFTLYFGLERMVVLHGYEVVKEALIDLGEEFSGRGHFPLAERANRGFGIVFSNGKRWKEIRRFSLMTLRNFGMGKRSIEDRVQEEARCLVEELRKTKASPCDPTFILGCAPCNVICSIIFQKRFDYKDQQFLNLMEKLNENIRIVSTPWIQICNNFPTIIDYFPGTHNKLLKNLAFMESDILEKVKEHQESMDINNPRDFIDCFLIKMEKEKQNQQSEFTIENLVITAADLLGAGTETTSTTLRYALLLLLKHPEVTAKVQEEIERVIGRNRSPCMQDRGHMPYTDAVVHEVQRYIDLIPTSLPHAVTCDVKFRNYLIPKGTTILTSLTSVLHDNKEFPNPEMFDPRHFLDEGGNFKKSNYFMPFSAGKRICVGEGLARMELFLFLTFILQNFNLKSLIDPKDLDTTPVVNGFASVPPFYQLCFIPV

[6] = Oral bioavailability in rat at 5 mg/kg; assay type: ADME, organism-based; settings: in vivo
Cytochrome P450 3A4 = Cytochrome P450 3A4 (Homo sapiens, UniProt P08684); experiment: Inhibition of CYP3A4; assay type: ADME
Chain of Cytochrome P450 3A4 (P08684 whole entry): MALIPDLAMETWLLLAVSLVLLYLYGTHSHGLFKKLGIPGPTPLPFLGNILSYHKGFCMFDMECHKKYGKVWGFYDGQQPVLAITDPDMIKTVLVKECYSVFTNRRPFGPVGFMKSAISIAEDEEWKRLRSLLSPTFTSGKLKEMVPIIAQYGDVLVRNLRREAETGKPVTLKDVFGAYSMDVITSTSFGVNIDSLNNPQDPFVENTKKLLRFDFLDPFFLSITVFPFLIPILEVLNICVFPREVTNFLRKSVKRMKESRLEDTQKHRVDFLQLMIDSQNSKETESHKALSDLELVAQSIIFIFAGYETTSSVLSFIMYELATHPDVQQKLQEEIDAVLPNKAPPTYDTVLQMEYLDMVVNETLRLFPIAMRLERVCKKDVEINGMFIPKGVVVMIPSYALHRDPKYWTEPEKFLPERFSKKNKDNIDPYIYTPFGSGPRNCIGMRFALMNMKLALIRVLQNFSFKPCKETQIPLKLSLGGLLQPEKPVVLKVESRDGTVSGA

Mus musculus [7] = experiment: Analgesic activity in CP-55940-induced ICR mouse assessed as reduction in latency to jump, kick, lick, flick paw at 10 mg/kg, ip by hotplate assay; assay type: functional; parameters: scale not given: the % may be the effect or the level left; settings: route intraperitoneal
Rattus norvegicus [8] = experiment: Antiobesity activity in overnight fasted Sprague-Dawley rat assessed as reduction in food intake in at 10 mg/kg, po; assay type: functional; parameters: scale not given: the % may be the effect or the level left
[9] = Volume of distribution in rat at 2 mg/kg, iv; assay type: ADME, organism-based; parameters: dose 2 mg/kg, route intravenous; settings: in vivo
Cytochrome P450 1A2 = target: T1, Cytochrome P450 1A2 (Homo sapiens, UniProt P05177); experiment: Inhibition of CYP1A2; assay type: ADME
T1 sequence (P05177 whole entry): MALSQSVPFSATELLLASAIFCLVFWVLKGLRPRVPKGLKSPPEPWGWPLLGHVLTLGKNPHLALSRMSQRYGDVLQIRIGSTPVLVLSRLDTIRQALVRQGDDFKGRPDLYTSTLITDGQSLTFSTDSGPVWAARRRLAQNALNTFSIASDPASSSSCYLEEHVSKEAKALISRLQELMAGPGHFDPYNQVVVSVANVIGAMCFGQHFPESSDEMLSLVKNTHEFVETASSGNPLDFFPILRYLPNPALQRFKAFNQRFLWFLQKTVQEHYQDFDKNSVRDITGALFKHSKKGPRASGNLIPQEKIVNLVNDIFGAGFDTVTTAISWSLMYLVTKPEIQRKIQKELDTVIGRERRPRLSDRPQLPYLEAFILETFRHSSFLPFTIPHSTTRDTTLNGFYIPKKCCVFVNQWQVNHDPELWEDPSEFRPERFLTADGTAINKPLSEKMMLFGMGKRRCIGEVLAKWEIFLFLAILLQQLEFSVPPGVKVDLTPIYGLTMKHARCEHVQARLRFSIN

Cytochrome P450 2D6 = Cytochrome P450 2D6 (Homo sapiens, UniProt P10635); experiment: Inhibition of CYP2D6; assay type: ADME
Chain of Cytochrome P450 2D6 (P10635 whole entry): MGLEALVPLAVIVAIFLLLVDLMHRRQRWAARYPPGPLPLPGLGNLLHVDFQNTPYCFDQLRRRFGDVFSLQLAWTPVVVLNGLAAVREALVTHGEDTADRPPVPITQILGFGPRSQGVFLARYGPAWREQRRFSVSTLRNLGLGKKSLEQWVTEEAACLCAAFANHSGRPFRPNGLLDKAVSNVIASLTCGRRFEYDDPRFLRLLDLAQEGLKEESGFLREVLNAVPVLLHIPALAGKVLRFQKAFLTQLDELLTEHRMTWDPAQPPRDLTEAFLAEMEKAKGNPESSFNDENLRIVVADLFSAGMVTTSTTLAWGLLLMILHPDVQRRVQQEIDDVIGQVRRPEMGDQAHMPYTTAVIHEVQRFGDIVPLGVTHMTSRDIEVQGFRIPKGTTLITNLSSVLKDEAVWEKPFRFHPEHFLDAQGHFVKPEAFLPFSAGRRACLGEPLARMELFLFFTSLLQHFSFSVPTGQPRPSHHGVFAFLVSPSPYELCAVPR

Cytochrome P450 2C9 = Cytochrome P450 2C9 (Homo sapiens, UniProt P11712); experiment: Inhibition of CYP2C9; assay type: ADME
Chain of Cytochrome P450 2C9 (P11712 whole entry): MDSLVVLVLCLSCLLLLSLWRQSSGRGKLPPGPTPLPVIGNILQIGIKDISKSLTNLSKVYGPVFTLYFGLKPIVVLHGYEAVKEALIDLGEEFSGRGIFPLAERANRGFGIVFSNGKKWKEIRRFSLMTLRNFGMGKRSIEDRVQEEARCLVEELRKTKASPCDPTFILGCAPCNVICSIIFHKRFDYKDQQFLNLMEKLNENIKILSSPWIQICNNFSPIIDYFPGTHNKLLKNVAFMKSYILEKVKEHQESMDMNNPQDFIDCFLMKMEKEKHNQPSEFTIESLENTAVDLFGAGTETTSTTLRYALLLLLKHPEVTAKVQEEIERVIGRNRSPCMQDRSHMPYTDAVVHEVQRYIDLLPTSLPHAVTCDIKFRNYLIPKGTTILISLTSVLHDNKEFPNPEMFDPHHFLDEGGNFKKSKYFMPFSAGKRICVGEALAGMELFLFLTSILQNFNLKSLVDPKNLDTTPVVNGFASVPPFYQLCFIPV

[10] = Half life in rat at 2 mg/kg, iv; assay type: ADME, organism-based; parameters: dose 2 mg/kg, route intravenous; settings: in vivo
Rattus norvegicus [11] = experiment: Antiobesity activity in overnight fasted Sprague-Dawley rat assessed as reduction in food intake in at 3 mg/kg, po; assay type: functional; parameters: scale not given: the % may be the effect or the level left

Chain of Cannabinoid receptor 1 (Rattus norvegicus, UniProt P20272) (P20272 whole entry): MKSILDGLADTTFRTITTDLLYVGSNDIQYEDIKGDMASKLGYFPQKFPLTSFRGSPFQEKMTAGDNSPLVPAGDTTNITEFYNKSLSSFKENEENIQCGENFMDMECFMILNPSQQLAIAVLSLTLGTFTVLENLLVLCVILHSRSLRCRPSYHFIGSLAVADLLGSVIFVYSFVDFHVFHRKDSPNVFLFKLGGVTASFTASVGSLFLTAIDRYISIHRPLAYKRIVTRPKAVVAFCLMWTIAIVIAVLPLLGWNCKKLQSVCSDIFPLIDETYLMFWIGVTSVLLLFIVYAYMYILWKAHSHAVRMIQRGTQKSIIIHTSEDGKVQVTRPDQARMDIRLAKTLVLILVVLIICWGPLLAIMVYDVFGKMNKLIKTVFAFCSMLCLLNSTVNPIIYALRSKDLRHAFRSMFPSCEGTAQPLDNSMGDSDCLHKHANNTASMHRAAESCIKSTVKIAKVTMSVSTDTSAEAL
Chain of Cannabinoid receptor 1 (Homo sapiens, UniProt P21554) (P21554 whole entry): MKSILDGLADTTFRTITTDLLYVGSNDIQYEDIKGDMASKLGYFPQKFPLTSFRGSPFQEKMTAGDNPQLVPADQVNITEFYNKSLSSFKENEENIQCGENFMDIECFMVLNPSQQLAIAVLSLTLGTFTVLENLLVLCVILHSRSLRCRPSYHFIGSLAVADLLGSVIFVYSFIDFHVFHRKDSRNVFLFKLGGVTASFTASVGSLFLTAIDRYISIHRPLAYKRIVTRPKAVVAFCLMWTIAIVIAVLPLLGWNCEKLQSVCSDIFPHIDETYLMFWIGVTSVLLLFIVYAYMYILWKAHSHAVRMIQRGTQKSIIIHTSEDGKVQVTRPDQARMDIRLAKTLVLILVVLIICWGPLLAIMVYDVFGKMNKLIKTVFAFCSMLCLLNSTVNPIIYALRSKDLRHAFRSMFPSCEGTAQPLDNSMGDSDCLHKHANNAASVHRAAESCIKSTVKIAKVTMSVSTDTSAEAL

Ki (Cannabinoid receptor 1 [1]) [nM] | Ki (Cannabinoid receptor 1 [2]) [nM] | Ratio Ki (Homo sapiens) | SMILES | further results
19 | 3.8 | > 100 | Cc1c(-c2cn(-c3ccccc3)cn2)nn(-c2ccccc2Cl)c1-c1ccc(Cl)cc1 | –
7.2 | 9.5 | > 100 | Cc1c(-c2cnc(C(C)C)[nH]2)nn(-c2ccc(Cl)cc2Cl)c1-c1ccc(Cl)cc1 | CLint scaled [3]: 42.5 mL/min/kg
7.4 | 7.9 | > 100 | Cc1c(-c2cn(C3CC3)cn2)nn(-c2ccccc2Cl)c1-c1ccc(Cl)cc1 | –
8.6 | 4.7 | > 100 | Cc1c(-c2cn(C3CCCCC3)cn2)nn(-c2ccc(Cl)cc2Cl)c1-c1ccc(Cl)cc1 | –
1.8 | 0.1 | > 100 | Cc1c(-c2cn(C(C)(C)c3ccccc3)cn2)nn(-c2ccc(Cl)cc2Cl)c1-c1ccc(Cl)cc1 | –
9.5 | 5.2 | > 100 | Cc1c(-c2ncc(C(C)C)[nH]2)nn(-c2ccc(Cl)cc2Cl)c1-c1ccc(Cl)cc1 | CLint scaled [3]: 42.5 mL/min/kg
38 | – | > 100 | CCc1c(-c2nn(-c3ccc(Cl)cc3Cl)c(-c3ccc(Cl)cc3)c2C)ncn1C(C)C | –
4.9 | 9 | > 100 | Cc1c(-c2cn(C(C)C)cn2)nn(-c2ccc(Cl)cc2Cl)c1-c1ccc(Cl)cc1 | CLint scaled [3]: 14 mL/min/kg
19 | – | > 100 | Cc1c(-c2ncn(C(C)C)c2CO)nn(-c2ccc(Cl)cc2Cl)c1-c1ccc(Cl)cc1 | –
14 | – | > 100 | Cc1c(-c2cn(Cc3ccccc3)cn2)nn(-c2ccc(Cl)cc2Cl)c1-c1ccc(Cl)cc1 | –
31 | – | > 100 | Cc1c(-c2nc[nH]c2C(C)C)nn(-c2ccccc2Cl)c1-c1ccc(Cl)cc1 | –
25 | – | > 100 | Cc1c(-c2cn(C3CCOCC3)cn2)nn(-c2ccc(Cl)cc2Cl)c1-c1ccc(Cl)cc1 | CLint scaled [3]: < 7 mL/min/kg
10 | 5 | > 100 | Cc1c(-c2cn(C3CCC3)cn2)nn(-c2ccc(Cl)cc2Cl)c1-c1ccc(Cl)cc1 | –
14 | – | > 100 | Cc1c(-c2cn(C(C)(C)C)cn2)nn(-c2ccc(Cl)cc2Cl)c1-c1ccc(Cl)cc1 | –
20 | – | > 100 | CCn1cnc(-c2nn(-c3ccc(Cl)cc3Cl)c(-c3ccc(Cl)cc3)c2C)c1 | –

SMILES | Ki (Cannabinoid receptor 1 [1]) [nM] | Ki (Cannabinoid receptor 1 [2]) [nM] | Ratio Ki (Homo sapiens) | further results
Cc1c(-c2ncn(C(C)C)c2C)nn(-c2ccc(Cl)cc2Cl)c1-c1ccc(Cl)cc1 | 5.7 | 9 | > 100 | –
Cc1c(-c2cn(C(C)(C)c3ccccc3)cn2)nn(-c2ccccc2Cl)c1-c1ccc(Cl)cc1 | 1.1 | 0.1 | > 100 | –
Cc1c(-c2cn(C(C)C)cn2)nn(-c2ccccc2Cl)c1-c1ccc(Cl)cc1 | 5.3 | 7.6 | > 100 | clearance (Rattus norvegicus [4]): 21 mL/min/kg; Activity (Mus musculus [5]): 33%; IC50 (Cytochrome P450 2C19): > 10 µM; bioavailability [6]: 42%; IC50 (Cytochrome P450 3A4): > 10 µM; Activity (Mus musculus [7]): 56%; Activity (Rattus norvegicus [8]): 44%; Vd [9]: 2.5 L/kg; IC50 (Cytochrome P450 1A2): > 10 µM; IC50 (Cytochrome P450 2D6): > 10 µM; IC50 (Cytochrome P450 2C9): > 10 µM; half-life [10]: 90 min; Activity (Rattus norvegicus [11]): -31%

From ChEMBL document CHEMBL1155992, “Bioisosteric replacement of the hydrazide pharmacophore of the cannabinoid-1 receptor antagonist SR141716A. Part I: potent, orally-active 1,4-disubstituted imidazoles” (Bioorg Med Chem Lett, 2009)
